PubChem BioAssay AID248 (DTP/NCI, 2004)
Values joined by “and” are separate entries in the source; they are usually repeats but may differ in a detail not shown here. Equal values may be shown once. Toxic doses and inconclusive results are not listed. Rule as the data show it: active = T/C of 150% or more; inactive = T/C below 125%.

Test system: L1210 leukemia ip in BDF1 mice, survival T/C
Assay: NCI In Vivo Anticancer Drug Screen. Data for tumor model L1210 Leukemia (intraperitoneal) in B6D2F1 (BDF1) mice
Settings: endpoint: mean survival time, higher = longer survival
Method in brief: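 Transplanted-tumor mice were given test agent; controls received vehicle only. Survival readings from the two groups were divided (treated over control).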

[1] = dose: 100.0 mg/kg/injection, schedule: Q01DX001 (ip), vehicle: Klucel (hydroxypropylcellulose) (HPC)
[2] = dose: 200.0 mg/kg/injection, schedule: Q01DX001 (ip), vehicle: Klucel (hydroxypropylcellulose) (HPC)
[3] = dose: 400.0 mg/kg/injection, schedule: Q01DX001 (ip), vehicle: Klucel (hydroxypropylcellulose) (HPC)
[4] = dose: 100.0 mg/kg/injection, schedule: Q01DX009 (ip), vehicle: Klucel (hydroxypropylcellulose) (HPC)
[5] = dose: 100.0 mg/kg/injection, schedule: Q04DX003 (ip), vehicle: Klucel (hydroxypropylcellulose) (HPC)
[6] = dose: 200.0 mg/kg/injection, schedule: Q01DX009 (ip), vehicle: Klucel (hydroxypropylcellulose) (HPC)
[7] = dose: 200.0 mg/kg/injection, schedule: Q04DX003 (ip), vehicle: Klucel (hydroxypropylcellulose) (HPC)
[8] = dose: 400.0 mg/kg/injection, schedule: Q01DX009 (ip), vehicle: Klucel (hydroxypropylcellulose) (HPC)
[9] = dose: 400.0 mg/kg/injection, schedule: Q04DX003 (ip), vehicle: Klucel (hydroxypropylcellulose) (HPC)
[10] = dose: 100.0 mg/kg/injection, schedule: Q01DX009 (ip), vehicle: saline with Tween-80
[11] = dose: 200.0 mg/kg/injection, schedule: Q01DX009 (ip), vehicle: saline with Tween-80
[12] = dose: 400.0 mg/kg/injection, schedule: Q01DX009 (ip), vehicle: saline with Tween-80
[13] = dose: 100.0 mg/kg/injection, schedule: Q01DX001 (ip), vehicle: saline
[14] = dose: 200.0 mg/kg/injection, schedule: Q01DX001 (ip), vehicle: saline
[15] = dose: 400.0 mg/kg/injection, schedule: Q01DX001 (ip), vehicle: saline

Measured: T/C

CCCCCC1CCC(OC(=O)NC)CC1 (centres undefined)
inactive: [1] 99 % of control | [2] 100 % of control | [3] 94 % of control

Nc1ccc(SCC(=O)O)cc1
inactive: dose: 75.0 mg/kg/injection, schedule: Q01DX001 (ip), vehicle: saline 94 % of control | dose: 150.0 mg/kg/injection, schedule: Q01DX001 (ip), vehicle: saline 100 % of control | dose: 300.0 mg/kg/injection, schedule: Q01DX001 (ip), vehicle: saline 92 % of control

CCCCCCCCCCNC(=O)C[n+]1cccc(C(N)=O)c1
inactive: dose: 12.5 mg/kg/injection, schedule: Q04DX003 (ip), vehicle: saline 86 % of control | dose: 25.0 mg/kg/injection, schedule: Q04DX003 (ip), vehicle: saline 89 % of control | dose: 50.0 mg/kg/injection, schedule: Q04DX003 (ip), vehicle: saline 102 % of control

CCCCCCCCCCCCCCCCCC
inactive: dose: 100.0 mg/kg/injection, schedule: Q04DX002 (ip), vehicle: other 96 % of control | dose: 200.0 mg/kg/injection, schedule: Q04DX002 (ip), vehicle: other 92 % of control

COc1cc(NC(=O)Nc2cc(Cl)ccc2C)c(OC)cc1Cl
inactive: [1] 97 % of control | [4] 94 % of control and 88 % of control | dose: 100.0 mg/kg/injection, schedule: Q04DX002 (ip), vehicle: Klucel (hydroxypropylcellulose) (HPC) 104 % of control | [5] 103 % of control | [2] 103 % of control | [6] 87 % of control and 90 % of control | dose: 200.0 mg/kg/injection, schedule: Q04DX002 (ip), vehicle: Klucel (hydroxypropylcellulose) (HPC) 98 % of control | [7] 101 % of control | [3] 95 % of control | [8] 88 % of control | dose: 400.0 mg/kg/injection, schedule: Q04DX002 (ip), vehicle: Klucel (hydroxypropylcellulose) (HPC) 89 % of control | [9] 92 % of control

CC(=O)OC1CCC2(C)C(=CC(=O)C3C2CCC2(C)C(C(C)CCCC(C)C)CCC32)C1 (centres undefined)
inactive: dose: 100.0 mg/kg/injection, schedule: Q01DX009 (sc), vehicle: steriod suspending solution 108 % of control | dose: 100.0 mg/kg/injection, schedule: Q04DX003 (sc), vehicle: steriod suspending solution 91 % of control | dose: 200.0 mg/kg/injection, schedule: Q01DX009 (sc), vehicle: steriod suspending solution 110 % of control | dose: 200.0 mg/kg/injection, schedule: Q04DX003 (sc), vehicle: steriod suspending solution 91 % of control | dose: 400.0 mg/kg/injection, schedule: Q01DX009 (sc), vehicle: steriod suspending solution 115 % of control | dose: 400.0 mg/kg/injection, schedule: Q04DX003 (sc), vehicle: steriod suspending solution 102 % of control

CCCCCCCCCCC(O)CCCCCCCCCC
inactive: [10] 96 % of control | [11] 105 % of control | [12] 93 % of control

CCCCCCn1c(O)c(C=N)c(=O)[nH]c1=O
inactive: [4] 100 % of control | [5] 93 % of control | [6] 99 % of control | [7] 100 % of control | [8] 97 % of control | [9] 94 % of control

c1ccc(N2N=NC3C4CC(C5COCC54)C32)cc1 (centres undefined)
inactive: [1] 97 % of control | [2] 104 % of control | [6] 121 % of control | [3] 109 % of control

O=C(O)COc1c(Cl)cc(Cl)c2cccnc12
inactive: dose: 100.0 mg/kg/injection, schedule: Q01DX001 (ip), vehicle: carboxymethylcellulose (CMC) 93 % of control | dose: 200.0 mg/kg/injection, schedule: Q01DX001 (ip), vehicle: carboxymethylcellulose (CMC) 101 % of control

ClCCN1CCC2(CC1)SSC1(CCN(CCCl)CC1)S2
inactive: dose: 10.0 mg/kg/injection, schedule: Q01DX009 (ip), vehicle: saline 107 % of control | dose: 20.0 mg/kg/injection, schedule: Q01DX001 (ip), vehicle: Klucel (hydroxypropylcellulose) (HPC) 108 % of control | dose: 20.0 mg/kg/injection, schedule: Q01DX009 (ip), vehicle: saline 103 % of control | dose: 40.0 mg/kg/injection, schedule: Q01DX001 (ip), vehicle: Klucel (hydroxypropylcellulose) (HPC) 121 % of control

CCCCS(=O)(=O)c1ccc(OC)c(NC(C)=O)c1
inactive: dose: 75.0 mg/kg/injection, schedule: Q04DX003 (ip), vehicle: Klucel (hydroxypropylcellulose) (HPC) 103 % of control | [1] 98 % of control | dose: 150.0 mg/kg/injection, schedule: Q04DX003 (ip), vehicle: Klucel (hydroxypropylcellulose) (HPC) 96 % of control | [2] 107 % of control | dose: 300.0 mg/kg/injection, schedule: Q04DX003 (ip), vehicle: Klucel (hydroxypropylcellulose) (HPC) 107 % of control | [3] 100 % of control

CC(C)Cc1c(N)nc(=S)[nH]c1C(=O)O
inactive: [1] 100 % of control | dose: 100.0 mg/kg/injection, schedule: Q04DX003 (ip), vehicle: saline 100 % of control | [2] 100 % of control | dose: 200.0 mg/kg/injection, schedule: Q04DX003 (ip), vehicle: saline 94 % of control | [3] 109 % of control | dose: 400.0 mg/kg/injection, schedule: Q04DX003 (ip), vehicle: saline 94 % of control

C/C(=N\NC(=S)Nc1cc(Cl)ccc1Cl)c1ccc(O)cc1O
inactive: [1] 88 % of control | [2] 96 % of control | [3] 95 % of control

COc1ccc(C)cc1NC(=S)NC(=O)c1cccc([N+](=O)[O-])c1
inactive: dose: 100.0 mg/kg/injection, schedule: Q01DX001 (ip), vehicle: saline with Tween-80 93 % of control | [10] 100 % of control and 89 % of control | dose: 100.0 mg/kg/injection, schedule: Q04DX002 (ip), vehicle: saline with Tween-80 87 % of control | dose: 100.0 mg/kg/injection, schedule: Q04DX003 (ip), vehicle: saline with Tween-80 101 % of control | dose: 200.0 mg/kg/injection, schedule: Q01DX001 (ip), vehicle: saline with Tween-80 89 % of control | [11] 96 % of control and 97 % of control | dose: 200.0 mg/kg/injection, schedule: Q04DX002 (ip), vehicle: saline with Tween-80 97 % of control | dose: 200.0 mg/kg/injection, schedule: Q04DX003 (ip), vehicle: saline with Tween-80 93 % of control | [12] 92 % of control and 101 % of control | dose: 400.0 mg/kg/injection, schedule: Q04DX002 (ip), vehicle: saline with Tween-80 90 % of control | dose: 400.0 mg/kg/injection, schedule: Q04DX003 (ip), vehicle: saline with Tween-80 88 % of control

Cc1nn(C(N)=S)c(C)c1N=Nc1cccc(Cl)c1
inactive: dose: 75.0 mg/kg/injection, schedule: Q01DX001 (ip), vehicle: other 96 % of control | dose: 150.0 mg/kg/injection, schedule: Q01DX001 (ip), vehicle: other 100 % of control | dose: 300.0 mg/kg/injection, schedule: Q01DX001 (ip), vehicle: other 105 % of control

CCC(CCNC(=O)c1ccccc1)(CCNC(=O)c1ccccc1)[N+](=O)[O-]
inactive: [13] 95 % of control | [14] 106 % of control | [15] 92 % of control

Oc1ccc(Br)cc1-c1nc2cc3ccccc3cc2nc1-c1cc(Br)ccc1O
inactive: [13] 103 % of control | [14] 96 % of control | [15] 94 % of control

CC(=O)NC(COC(C)=O)C1OC(C)(C)OC1C(COC(C)=O)OC(C)=O (centres undefined)
inactive: [13] 101 % of control | [14] 104 % of control | [15] 98 % of control

O=C(Nc1ccc(S(=O)(=O)F)c(Cl)c1)Oc1ccccc1
inactive: [13] 96 % of control | [14] 96 % of control | [15] 96 % of control
